Measured values: the NIST ThermoML archive (doi:10.1021/je100177u)
± gives the expanded uncertainty stated by the source.

Settings: 298.15 K; for surface tension liquid-gas: Drop volume; for mass density: 101.33 kPa, Liquid

## CCCCCl [1-chlorobutane]
  surface tension liquid-gas: 23.29 ± 0.18 mN/m
  mass density: 880.69 ± 0.61 kg/m3

## CC(C)CO [2-methyl-1-propanol]
  surface tension liquid-gas: 22.47 ± 0.15 mN/m
  mass density: 797.77 ± 0.62 kg/m3

## CC(C)(C)O [2-methylpropan-2-ol]
  surface tension liquid-gas: 20.3 ± 0.14 mN/m
  mass density: 780.78 ± 0.65 kg/m3

## CCCCO [butan-1-ol]
  surface tension liquid-gas: 24.25 ± 0.15 mN/m
  mass density: 805.8 ± 0.29 kg/m3

## CCC(C)O (configuration not stated) [butan-2-ol]
  surface tension liquid-gas: 23.08 ± 0.18 mN/m
  mass density: 802.44 ± 0.73 kg/m3

## CCCCCC [hexane]
  surface tension liquid-gas: 18.06 ± 0.16 mN/m
  mass density: 655.07 ± 0.98 kg/m3
